How the values were obtained:
hematopoietic stem cells [1] = test: Hematopoietic stem cell number and cell cycle in uninjured mice after ABC294640 treatment; type: in vivo; conditions: vs solvent control
From the text: FIG. 27. illustrates the absolute number of HSPCs (LT-HSC, ST-HSC, MPP and CD150HSC) in the bone marrow (a) and cell cycle analysis of CD150 HSCs (b) in bone marrow from C57BL/6J mice after ABC294640 or solvent control treatment (n=5 mice). Data represent mean±s.d. Two-tailed Student's t-tests were used to assess statistical significance. *P<0.05, **P<0.01, ***P<0.001. To analyze whether Sphk2 inhibitor is effective in expanding hematopoietic stem cell number and enhance their function. Twenty 8-week-old C57 mice (purchased from Laboratory Animal Center, Sun Yat-sen University) were selected for the experiment. The mice were divided evenly into an inhibitor treatment group and a control group. The mice were injected intraperitoneally with ABC294640 (inhibitor treatment group) or solvent control (1:1 physiological saline: PEG400) solution (control group) every other day. 14 days after the first injection, bone marrow cells were harvested from both groups, and were analyzed for the number of hematopoietic stem cells, with methods and analysis as described in Example 1. To evaluate the hematopoietic function of the hematopoietic stem cells, 2×10^5 bone marrow cells from Sphk2 inhibitor or solvent control treated mice were transplanted into irradiated recipients (as described in Example 13). Peripheral blood was collected from the tail vein every 4 weeks after transplantation. The hematopoietic repopulation function was examined from donor-derived blood cells. The Sphk2 inhibitor was prepared as described in Example 4. Briefly, ABC294640 was purchased from Selleck and dissolved in dimethyl sulfoxide (DMSO), which was finally diluted with a mixture solution of polyethylene glycol 400 (PEG400) and physiological saline (1:1) to be administered at a dose of 10 mg/kg. T-test analysis was carried out using Graphpad6.0, and differences were considered statistically significant when *P<0.05, **P<0.01 and ***P<0.001.

hematopoietic stem cells [2] = test: Serial transplantation repopulation assay of bone marrow cells after 5FU and ABC294640 treatment; type: in vivo, mice
From the text: FIG. 28. illustrates the quantification of functional HSCs by transplantation assay. 2×10^5 bone marrow cells from C57BL/6J mice after 5FU and ABC294640 or vehicle control treatment were transplanted into […] mice along with 2×10^5 recipient bone marrow cells. 1×10^6 bone marrow cells from primary or secondary recipient mice were transplanted into […] mice in secondary or tertiary recipients respectively. PB analysis for total engrafted donor cells at the indicated number of weeks after transplantation. FIG. 29. illustrates the percentage of donor-derived B, T and myeloid lineage cells at 16 weeks after transplantation. Repopulation analyses was also performed to investigate whether ABC294640 treatment functionally promotes HSC regeneration after chemotherapeutic stress.

[3] = 16 weeks after transplantation, FIG. 29
[4] = at 16 weeks, donor bone marrow after 5FU and ABC294640 vs solvent control, FIG. 28

SMILES: O=C(NCc1ccncc1)C12CC3CC(C1)CC(c1ccc(Cl)cc1)(C3)C2 [ABC294640, 3-(4-chloro-phenyl)-adamantane-1-carboxylic acid (pyridin-4-ylmethyl)-amide]
- increase of number of hematopoietic stem cells (hematopoietic stem cells [1]; ABC294640 10 mg/kg i.p. every other day, 14 days after first injection, FIG. 14 panel b): 1.7 fold
- increase of CD150 HSCs (expanded HSC pool) (hematopoietic stem cells [1]; FIG. 27): 1.7 fold
- increase of LT-HSCs (expanded HSC pool) (hematopoietic stem cells [1]; FIG. 27): 2.1 fold
- quiescence of HSCs (cell cycle analysis of CD150 HSCs) (hematopoietic stem cells [1]; FIG. 27): increased quiescence
- lymphopoiesis in recipients (hematopoietic stem cells [2]; [3]): markedly promoted lymphopoiesis
- myeloid skewing in recipients (hematopoietic stem cells [2]; [3]): suppressed myeloid skewing
- increase of reconstitution, primary transplantation (hematopoietic stem cells [2]; [4]): about 1.7 fold
- increase of reconstitution, secondary transplantation (hematopoietic stem cells [2]; [4]): about 1.5 fold
- increase of reconstitution, tertiary transplantation (hematopoietic stem cells [2]; [4]): about 1.9 fold
